Assay results taken from US20120065187A1 (ALCON RESEARCH, LTD, priority 2008, published 2012).

Experiments:
[1] = biological target: T1, human H4 (Homo sapiens, UniProt Q9H3N8); assay: In vitro histamine receptor cell-based assay (aequorin bioluminescence), H4 antagonism; details: CHO-K1 cells expressing human H4, aequorin and Gα16; histamine at EC80; read-out: H4 Antagonist EC50
T1 construct: host or cells: CHO-K1
Method in brief: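 Antagonism read as loss of aequorin luminescence after histamine (EC80 final) addition, following 15 min room-temperature compound pretreatment of coelenterazine-h-loaded (5 μM) CHO-K1 cells co-expressing human H4 and Gα16. Efficacy given relative to 10 μM JNJ7777120; agonism excluded in separate no-histamine runs.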

[2] = biological target: T2, human H1 (Homo sapiens, UniProt P35367); assay: In vitro histamine receptor cell-based assay (aequorin bioluminescence), H1 antagonism; details: CHO-K1 cells expressing human H1 and aequorin; histamine at EC80; read-out: H1 Antagonist EC50
T2 construct: host or cells: CHO-K1
T2 sequence (P35367 whole entry): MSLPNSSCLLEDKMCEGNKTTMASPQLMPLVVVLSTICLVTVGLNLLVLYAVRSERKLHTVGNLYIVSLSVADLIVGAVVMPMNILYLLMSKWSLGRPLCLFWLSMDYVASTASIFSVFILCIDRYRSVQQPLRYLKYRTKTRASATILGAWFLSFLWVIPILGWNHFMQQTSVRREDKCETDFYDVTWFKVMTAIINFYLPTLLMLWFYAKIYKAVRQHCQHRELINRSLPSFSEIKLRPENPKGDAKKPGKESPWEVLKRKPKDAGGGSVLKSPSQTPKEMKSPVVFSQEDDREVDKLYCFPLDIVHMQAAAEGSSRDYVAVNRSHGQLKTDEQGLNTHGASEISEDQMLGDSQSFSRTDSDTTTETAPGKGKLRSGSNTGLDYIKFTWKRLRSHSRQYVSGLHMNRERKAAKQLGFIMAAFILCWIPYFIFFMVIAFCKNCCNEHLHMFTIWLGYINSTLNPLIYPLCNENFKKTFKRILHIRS
Method in brief: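 Antagonism read as drop in aequorin luminescence after histamine challenge at a predetermined EC80, following 15 min compound pretreatment at room temperature. Cells: CHO-K1 carrying human H1, or H4 with Gα16; signal as AUC or amplitude, normalised to 10 μM diphenhydramine (H1) or JNJ7777120 (H4).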

[3] = system: Hartley VAF outbred guinea pigs; assay: Allergic conjunctivitis in passively sensitized guinea pigs (conjunctival EPO activity); type: in vivo; set-up: key: +: a 0.01% bid dose was statistically equivalent to dexamethasone with respect to reduction of EPO activity; −: the compound was statistically inferior to dexamethasone and not different than vehicle; details: reduction of conjunctival EPO activity vs dexamethasone; for BID activity: 0.01% bid topical, 1 hour prior to and 8 hours after ovalbumin challenge; for QD activity: ≦0.1% qd topical, 1 hour prior to ovalbumin challenge
Experimental: Male Hartley VAF outbred guinea pigs were passively sensitized to ovalbumin by a single OD subconjunctival injection of undiluted guinea pig anti-ovalbumin antiserum 24 hours before OD topical challenge with 500 μg ovalbumin in saline. Control animals were injected with saline only and challenged with ovalbumin. To determine acute phase drug efficacy, 30 min after challenge animals were clinically scored by a masked observer for severity of signs of conjunctivitis based on a standard scale. Test compounds were administered topically 1 hour prior to challenge (QD protocol), or 1 hour prior to challenge and again 8 hours after challenge (BID protocol). Twenty-four hours after challenge, animals were euthanized and conjunctivae were harvested for determination of tissue eosinophil peroxidase (EPO) concentration as a marker of allergic inflammation. Homogenates of freshly collected tissues were prepared by shaking the tissues in 2 mL round-bottom tubes containing 0.5 mL of homogenization buffer (50 mM Tris HCl, pH 8.0, 6 mM KBr) and one 5-mm stainless steel bead on a Qiagen TissueLyser at 30 Hz for 5 min. Homogenates were frozen and thawed once, then centrifuged at 10,000 rpm for 5 min. EPO activity in supernatants was measured by reacting diluted homogenates with a solution of 6 mM o-phenylenediamine substrate and 8.8 mM H2O2 in homogenization buffer for 3 min. The reaction was stopped with 4M H2SO4 and absorbances were measured at […] on a spectrophotometric plate reader. Total EPO in samples was calculated from a standard curve of recombinant human EPO in each assay. EPO activity was normalized to total protein concentration (Pierce BCA assay) in supernatants. Background EPO activity was determined from the unsensitized, antigen-challenged control group. Percent inhibition was calculated from the sensitized, antigen-challenged, vehicle-treated control group in each experiment. Ovalbumin-injected animals dosed topically with 0.1% w/v dexamethasone (dex) served as positive control. Groups were compared by ANOVA with Dunnett's or Tukey's post-hoc tests where appropriate with significance assigned at the 95% confidence level.
The table below summarizes the results.

T1 sequence (Q9H3N8 whole entry): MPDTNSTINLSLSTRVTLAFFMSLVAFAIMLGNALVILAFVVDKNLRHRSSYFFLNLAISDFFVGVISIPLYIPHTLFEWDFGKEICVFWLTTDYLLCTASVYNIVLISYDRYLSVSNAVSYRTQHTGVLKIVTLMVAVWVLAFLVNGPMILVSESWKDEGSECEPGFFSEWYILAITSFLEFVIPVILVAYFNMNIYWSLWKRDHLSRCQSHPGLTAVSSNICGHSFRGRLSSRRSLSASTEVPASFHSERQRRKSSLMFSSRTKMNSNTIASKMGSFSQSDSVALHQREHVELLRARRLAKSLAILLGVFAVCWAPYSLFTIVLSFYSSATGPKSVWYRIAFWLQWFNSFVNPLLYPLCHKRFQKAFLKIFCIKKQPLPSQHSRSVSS

Compound	EC50 [1] [µM]	EC50 [2] [µM]	BID activity [3]	QD activity [3]
CN1CCN(c2nc3ccc(C(F)(F)F)cc3n3cnnc23)CC1 [Example 23, 4-(4-methylpiperazin-1-yl)-8-(trifluoromethyl)-[1,2,4]triazolo[4,3-a]quinoxaline]	< 10	> 10	+	
CN1CCN(c2nc3ccc(Cl)cc3c3cn(C)nc23)CC1 [Example 150, 8-Chloro-2-methyl-4-(4-methylpiperazin-1-yl)-2H-pyrazolo[3,4-c]quinoline]	< 10	> 10	−	
CN1CCN(c2nc3ccc(Cl)cc3n3ccnc23)CC1 [Example 7, 8-Chloro-4-(4-methylpiperazin-1-yl)imidazo[1,2-a]quinoxaline]	< 10	> 10	−	
Cc1nc2c(N3CCN(C)CC3)nc3cc(F)c(F)cc3c2o1 [Example 145, 7,8-difluoro-2-methyl-4-(4-methylpiperazin-1-yl)oxazolo[4,5-c]quinoline]	< 10	> 10		−
Cc1nc2c3cc(C(F)(F)F)ccc3nc(N3CCNCC3)n2n1 [Example 104, 2-Methyl-5-(piperazin-1-yl)-9-(trifluoromethyl)-[1,2,4]triazolo[1,5-c]quinazoline]	< 10	> 10		−
Cc1nc2c(N3CCN(C)CC3)nc3ccc(Cl)cc3c2o1 [Example 143, 8-chloro-2-methyl-4-(4-methylpiperazin-1-yl)oxazolo[4,5-c]quinoline]	< 10	< 10	+	−
Cc1nc2c3cc(Br)ccc3nc(N3CCNCC3)n2n1 [Example 136, 9-bromo-2-methyl-5-(piperazin-1-yl)-[1,2,4]triazolo[1,5-c]quinazoline]	< 10	> 10		−
CN1CCN(c2nc3ccc(C(F)(F)F)cc3n3nnnc23)CC1 [Example 27, 4-(4-methylpiperazin-1-yl)-8-(trifluoromethyl)tetrazolo[1,5-a]quinoxaline]	< 10	> 10		−
Cc1nc2c3cc(OC(F)(F)F)ccc3nc(N3CCN(C)CC3)n2n1.Cl [Example 133, 2-methyl-5-(4-methylpiperazin-1-yl)-9-(trifluoromethoxy)-[1,2,4]triazolo[1,5-c]quinazoline hydrochloride]	< 10	> 10		−
CN1CCN(c2nc3ccc(Br)cc3n3cnnc23)CC1 [Example 54, 8-bromo-4-(4-methylpiperazin-1-yl)-[1,2,4]triazolo[4,3-a]quinoxaline]	< 10	> 10		−
Fc1cc2nc(N3CCNCC3)c3nncn3c2cc1Cl [Example 32, 8-chloro-7-fluoro-4-(piperazin-1-yl)-[1,2,4]triazolo[4,3-a]quinoxaline]	< 10	> 10	+	
Cc1ccc2nc(N3CCN(C)CC3)n3nc(C)nc3c2c1 [Example 99, 2,9-Dimethyl-5-(4-methylpiperazin-1-yl)-[1,2,4]triazolo[1,5-c]quinazoline]	< 10	> 10	+	−
Cc1ccc2nc(N3CCN(C)CC3)c3nncn3c2c1 [Example 21, 8-Methyl-4-(4-methylpiperazin-1-yl)-[1,2,4]triazolo[4,3-a]quinoxaline]	< 10	> 10	−	
Fc1cc2nc(N3CCNCC3)c3nncn3c2cc1C(F)(F)F [Example 41, 7-Fluoro-4-(piperazin-1-yl)-8-(trifluoromethyl)-[1,2,4]triazolo[4,3-a]quinoxaline]	< 10	> 10		−
Cc1nc2c3cc(Cl)c(F)cc3nc(N3CCN(C)CC3)n2n1 [Example 95, 9-Chloro-8-fluoro-2-methyl-5-(4-methylpiperazin-1-yl)-[1,2,4]triazolo[1,5-c]quinazoline]	< 10	> 10	−	
Brc1ccc2nc(N3CCNCC3)c3nncn3c2c1 [Example 52, 8-bromo-4-(piperazin-1-yl)-[1,2,4]triazolo[4,3-a]quinoxaline]	< 10	> 10		−
Cc1nc2c3cc(C(F)(F)F)c(F)cc3nc(N3CCNCC3)n2n1.Cl [Example 125, 8-fluoro-2-methyl-5-(piperazin-1-yl)-9-(trifluoromethyl)-[1,2,4]triazolo[1,5-c]quinazoline hydrochloride]	< 10	> 10		−
Clc1ccc2nc(N3CCNCC3)c3nc[nH]c3c2c1 [Example 161, 8-Chloro-4-(piperazin-1-yl)-1H-imidazo[4,5-c]quinoline]	< 10	< 10	+	
CN1CCN(c2nc3ccc(Cl)cc3c3[nH]cnc23)CC1 [Example 160, 8-Chloro-4-(4-methylpiperazin-1-yl)-1H-imidazo[4,5-c]quinoline]	< 10	> 10	−	
Fc1cc(C(F)(F)F)cc2c1nc(N1CCNCC1)c1nncn12 [Example 49, 6-Fluoro-4-(piperazin-1-yl)-8-(trifluoromethyl)-[1,2,4]triazolo[4,3-a]quinoxaline]	< 10	> 10		−
CN1CCN(c2nc3cc(F)c(Cl)cc3n3cnnc23)CC1 [Example 31, 8-chloro-7-fluoro-4-(4-methylpiperazin-1-yl)-[1,2,4]triazolo[4,3-a]quinoxaline]	< 10	> 10		−
Cc1nc2c3ccc(C(F)(F)F)cc3nc(N3CCN(C)CC3)n2n1 [Example 109, 2-Methyl-5-(4-methylpiperazin-1-yl)-8-(trifluoromethyl)-[1,2,4]triazolo[1,5-c]quinazoline]	< 10	> 10	−	
Clc1ccc2nc(N3CCCNCC3)c3nncn3c2c1 [Example 66, 8-chloro-4-(1,4-diazepan-1-yl)-[1,2,4]triazolo[4,3-a]quinoxaline]	< 10	> 10		−
Clc1ccc2nc(N3CCNCC3)c3n[nH]cc3c2c1 [Example 153, 8-Chloro-4-(piperazin-1-yl)-2H-pyrazolo[3,4-c]quinoline]	< 10	< 10	−	
CN1CCN(c2nc3cc(F)c(F)cc3n3cnnc23)CC1 [Example 37, 7,8-difluoro-4-(4-methylpiperazin-1-yl)-[1,2,4]triazolo[4,3-a]quinoxaline]	< 10	> 10	+	
CN1CCN(c2nc3cc(Cl)c(Cl)cc3n3cnnc23)CC1 [Example 39, 7,8-dichloro-4-(4-methylpiperazin-1-yl)-[1,2,4]triazolo[4,3-a]quinoxaline]	< 10	> 10	+	
Cc1nc2c3cc(C(F)(F)F)c(F)cc3nc(N3CCN(C)CC3)n2n1.Cl [Example 124, 8-fluoro-2-methyl-5-(4-methylpiperazin-1-yl)-9-(trifluoromethyl)-[1,2,4]triazolo[1,5-c]quinazoline hydrochloride]	< 10	> 10		−
Cc1nc2c3cc(F)c(C(F)(F)F)cc3nc(N3CCN(C)CC3)n2n1.Cl [Example 129, 9-fluoro-2-methyl-5-(4-methylpiperazin-1-yl)-8-(trifluoromethyl)-[1,2,4]triazolo[1,5-c]quinazoline hydrochloride]	< 10	> 10		−
